These results are taken from paper PMC8286840, “Identifying SARS-CoV-2 antiviral compounds by screening for small molecule inhibitors of Nsp3 papain-like protease” (Biochemical Journal, 2021).

Test [1] has as its target T1, SARS-CoV-2 PLpro (nsp3 1564–1878) (Severe acute respiratory syndrome coronavirus 2, UniProt P0DTD1). Briefly: biochemical. To be noted: high concentration screen, read-out: % of control remaining. Also noted: FRET-quenched peptide (Pro3) cleavage by PLpro, 10 min pre-incubation, slope over 20 min, normalised to no-compound control.
Test [2] has as its target T1, SARS-CoV-2 PLpro (nsp3 1564–1878). Briefly: biochemical. Also noted: FRET-quenched peptide (Pro3) cleavage by PLpro, 10 min pre-incubation, slope over 20 min, normalised to no-compound control. Particulars: low concentration screen, read-out: % of control remaining.

Where a name gives a salt, the structure may show the parent alone. Read-outs that look alike come from different tables or passages of the source.

Regarding `NC[C@H](CC(=O)O)c1ccc(Cl)cc1` [(R)-baclofen], in test [1] (Well no.=5315), the remaining activity at 3.75 µM amounted to 93.5%. Moreover, in test [2] (Well no.=5315), the remaining activity at 1.25 µM was 96.9%.
As for `O=C(O)[C@H]1CCCN1` [(R)-pyrrolidine-2-carboxylic acid], in test [1] (Well no.=8700), the remaining activity at 3.75 µM was 101%. Further, in test [2] (Well no.=8700), the remaining activity at 1.25 µM stood at 106%.
`O=C(O)[C@@H](O)Cc1ccccc1` [(S)-2-Hydroxy-3-phenylpropanoic acid]: the remaining activity at 3.75 µM in test [1] (Well no.=7173) turned out to be 88.8%. In addition, the remaining activity at 1.25 µM in test [2] (Well no.=7173) stood at 96.3%.
`O=C(O)C[C@H](O)C(=O)O` [(S)-2-Hydroxysuccinic acid]: in test [1] (Well no.=6825), the remaining activity at 3.75 µM amounted to 100%. The remaining activity at 1.25 µM in test [2] (Well no.=6825) was determined as 105%.
As for `N[C@H](C(=O)O)c1cc(O)cc(O)c1` [(S)-3,5-Dihydroxyphenylglycine], in test [1] (Well no.=401), the remaining activity at 3.75 µM was determined as 98.7%. Further, the remaining activity at 1.25 µM in test [2] (Well no.=401) turned out to be 102%.
As to `C[C@H](NC(=O)CC=C1NC(=O)c2ccccc2N1)c1ccccc1` [(S)-3-(4-oxo-3,4-dihydroquinazolin-2(1H)-ylidene)-N-(1-phenylethyl)propanamide], the remaining activity at 3.75 µM in test [1] (Well no.=6083) came out at 95.2%. Also, the remaining activity at 1.25 µM in test [2] (Well no.=6083) is 95.2%.
On to `C[C@H](O)CC(=O)O` [(S)-3-Hydroxybutanoic acid], for which the remaining activity at 3.75 µM in test [1] (Well no.=7301) was 105%. Besides, in test [2] (Well no.=7301), the remaining activity at 1.25 µM was determined as 109%.
As to `Cc1ncc(Cl)cc1NCc1ccc(C(=O)N[C@@H](CC2CCCC2)C(=O)NC2CC2)s1` [(S)-5-(((5-chloro-2-methylpyridin-3-yl)amino)methyl)-N-(3-cyclopentyl-1-(cyclopropylamino)-1-oxopropan-2-yl)thiophene-2-carboxamide], the remaining activity at 3.75 µM in test [1] (Well no.=5550) worked out at 99.3%. For the same compound, the remaining activity at 1.25 µM in test [2] (Well no.=5550) was 94.4%.
As for `O=C(O)c1ccc(NC(=O)[C@H](CC2CCCC2)n2cnc(C(F)(F)F)c2)nc1` [(S)-6-(3-cyclopentyl-2-(4-(trifluoromethyl)-1H-imidazol-1-yl)propanamido)nicotinic acid], in test [1] (Well no.=6066), the remaining activity at 3.75 µM turned out to be 86.8%. Further, in test [2] (Well no.=6066), the remaining activity at 1.25 µM was determined as 83%.
With `CC[C@@]1(O)C(=O)OCc2c1cc1n(c2=O)Cc2cc3ccccc3nc2-1` [(S)-(+)-Camptothecin], in test [1] (Well no.=483), the remaining activity at 3.75 µM came out at 90.7%. In test [2] (Well no.=483), the remaining activity at 1.25 µM worked out at 100%.
For `CCN1CCC[C@H]1CNC(=O)c1cc(S(N)(=O)=O)ccc1OC` [(S)-(-)-Sulpiride], the remaining activity at 3.75 µM in test [1] (Well no.=1636) worked out at 103%. Besides, in test [2] (Well no.=1636), the remaining activity at 1.25 µM is 98.3%.
Take `CCCNC[C@H](O)COc1ccccc1C(=O)CCc1ccccc1` [(S)-(-)-propafenone hydrochloride]: in test [1] (Well no.=1451), the remaining activity at 3.75 µM came out at 93.6%. Moreover, in test [2] (Well no.=1451), the remaining activity at 1.25 µM was 96.2%.
`OC[C@H]1O[C@@H](n2cnc3c(N[C@@H]4C[C@H]5CC[C@H]4C5)ncnc32)[C@H](O)[C@@H]1O` [(S)-ENBA]: the remaining activity at 3.75 µM in test [1] (Well no.=465) stood at 105%. Also, the remaining activity at 1.25 µM in test [2] (Well no.=465) worked out at 102%.
In the case of `N[C@@H](CCC(=O)O)C(=O)O` [(S)-Glutamic acid], the remaining activity at 3.75 µM in test [1] (Well no.=6165) was determined as 96.9%. Besides, the remaining activity at 1.25 µM in test [2] (Well no.=6165) is 98.9%.
In the case of `CC(C)C[C@H](O)C(=O)O` [(S)-Leucic acid], in test [1] (Well no.=6633), the remaining activity at 3.75 µM stood at 109%. The remaining activity at 1.25 µM in test [2] (Well no.=6633) amounted to 108%.
`Cc1[nH]c2ccccc2c1CC(=O)N[C@@H](Cc1ccccc1)C(=O)N(C)c1ccccc1` [(S)-N-methyl-2-(2-(2-methyl-1H-indol-3-yl)acetamido)-N,3-diphenylpropanamide]: the remaining activity at 3.75 µM in test [1] (Well no.=5917) turned out to be 103%. Moreover, the remaining activity at 1.25 µM in test [2] (Well no.=5917) was 106%.
Consider `CC(C)(C)NC[C@H](O)COc1nsnc1N1CCOCC1` [(S)-Timolol (Maleate)], for which, in test [1] (Well no.=7667), the remaining activity at 3.75 µM turned out to be 94.8%. In addition, the remaining activity at 1.25 µM in test [2] (Well no.=7667) was 92.8%.
In the case of `CC(C)(C)NC[C@H](O)COc1nsnc1N1CCOCC1` [(S)-Timolol maleate], in test [1] (Well no.=1739), the remaining activity at 3.75 µM was 97.3%. The remaining activity at 1.25 µM in test [2] (Well no.=1739) worked out at 98.8%.
